Test results as given in patent US20210024975A1, “METHODS FOR IDENTIFYING INHIBITORS OF LIPID A DEACYLASE AND […] RELATED TO SAME” (UNIVERSITY OF WASHINGTON, priority 2019, published 2021).

Test system: P. gingivalis 33277 mutants
Experiment: polymixin B sensitivity of P. gingivalis strains
Format: cell-based, Porphyromonas gingivalis
Details: J5-c5 transposon mutant; similar to the wild-type bacterium

polymixin B
polymixin B sensitivity of J5-c5 mutants: resistance
